According to ChEMBL document CHEMBL3994568 (2016):
In brackets after ≈: the same amount, converted by molar mass.

Columns and labels:
Assay type in all cases: functional
Bacillus = assay: Antibacterial activity against Bacillus proteus ATCC 13315 after 24 hrs by two-fold microbroth dilution method; conditions: ATCC 13315, 24 h
Escherichia coli = assay: Antibacterial activity against Escherichia coli JM109 after 24 hrs by two-fold microbroth dilution method; conditions: JM109, 24 h
Pseudomonas aeruginosa = assay: Antibacterial activity against Pseudomonas aeruginosa ATCC 27853 after 24 hrs by two-fold microbroth dilution method; conditions: ATCC 27853, 24 h
[1] = Antibacterial activity against Eberthella typhosa ATCC 14028 after 24 hrs by two-fold microbroth dilution method; conditions: ATCC 14028, 24 h
Staphylococcus aureus [2] = assay: Antibacterial activity against methicillin-resistant Staphylococcus aureus N315 after 24 hrs by two-fold microbroth dilution method; conditions: N315, 24 h
Staphylococcus aureus [3] = assay: Antibacterial activity against Staphylococcus aureus ATCC 25923 after 24 hrs by two-fold microbroth dilution method; conditions: ATCC 25923, 24 h
Bacillus spizizenii = assay: Antibacterial activity against Bacillus subtilis ATCC 6633 after 24 hrs by two-fold microbroth dilution method; conditions: ATCC 6633, 24 h
Micrococcus luteus = assay: Antibacterial activity against Micrococcus luteus ATCC 4698 after 24 hrs by two-fold microbroth dilution method; conditions: NCTC 2665, 24 h
Cyberlindnera jadinii = assay: Antifungal activity against Candida utilis ATCC 9950 after 24 hrs by two-fold microbroth dilution method; conditions: Williopsis jadinii, ATCC 9950, 24 h
Aspergillus flavus = assay: Antifungal activity against Aspergillus flavus ATCC 204304 after 24 hrs by two-fold microbroth dilution method; conditions: ATCC 204304, 24 h
Saccharomyces cerevisiae = assay: Antifungal activity against Saccharomyces cerevisiae ATCC 9763 after 24 hrs by two-fold microbroth dilution method; conditions: ATCC 9763, 24 h
Candida albicans = assay: Antifungal activity against Candida albicans ATCC 10231 after 24 hrs by two-fold microbroth dilution method; conditions: ATCC 10231, 24 h
Pichia norvegensis = assay: Antifungal activity against Candida mycoderma ATCC 9888 after 24 hrs by two-fold microbroth dilution method; conditions: ATCC 9888, 24 h

Compound | MIC (Bacillus) [mg/L] | MIC (Escherichia coli) [mg/L] | MIC (Pseudomonas aeruginosa) [mg/L] | MIC [1] [mg/L] | MIC (Staphylococcus aureus [2]) [mg/L] | MIC (Staphylococcus aureus [3]) [mg/L] | MIC (Bacillus spizizenii) [mg/L] | MIC (Micrococcus luteus) [mg/L] | MIC (Cyberlindnera jadinii) [mg/L] | MIC (Aspergillus flavus) [mg/L] | MIC (Saccharomyces cerevisiae) [mg/L] | MIC (Candida albicans) [mg/L] | MIC (Pichia norvegensis) [mg/L]
CCCCCCCCCCCCCCCCn1c2ccc(-c3csc(N)n3)cc2c2cc(-c3csc(N)n3)ccc21 | 128 (≈ 218 µM) | 128 (≈ 218 µM) | 512 (≈ 871 µM) | 512 (≈ 871 µM) | 256 (≈ 435 µM) | 256 (≈ 435 µM) | 512 (≈ 871 µM) | 256 (≈ 435 µM) | 128 (≈ 218 µM) | 128 (≈ 218 µM) | 256 (≈ 435 µM) | 512 (≈ 871 µM) | 512 (≈ 871 µM)
CCCCCCCCCCCCCCCCCCn1c2ccc(-c3csc(N)n3)cc2c2cc(-c3csc(N)n3)ccc21 | 256 (≈ 416 µM) | 128 (≈ 208 µM) | 512 (≈ 831 µM) | 256 (≈ 416 µM) | 512 (≈ 831 µM) | 256 (≈ 416 µM) | 256 (≈ 416 µM) | 512 (≈ 831 µM) | 256 (≈ 416 µM) | 256 (≈ 416 µM) | 256 (≈ 416 µM) | 256 (≈ 416 µM) | 512 (≈ 831 µM)
CCCCn1c2ccc(C(=O)CCl)cc2c2cc(C(=O)CCl)ccc21 | 256 (≈ 680 µM) | 512 (≈ 1360 µM) | 512 (≈ 1360 µM) | 512 (≈ 1360 µM) | 256 (≈ 680 µM) | 256 (≈ 680 µM) | 256 (≈ 680 µM) | 256 (≈ 680 µM) | 128 (≈ 340 µM) | 256 (≈ 680 µM) | 512 (≈ 1360 µM) | 512 (≈ 1360 µM) | 128 (≈ 340 µM)
CCCCCn1c2ccc(C(=O)CCl)cc2c2cc(C(=O)CCl)ccc21 | 512 (≈ 1310 µM) | 128 (≈ 328 µM) | 128 (≈ 328 µM) | 256 (≈ 656 µM) | 512 (≈ 1310 µM) | 256 (≈ 656 µM) | 512 (≈ 1310 µM) | 512 (≈ 1310 µM) | 128 (≈ 328 µM) | 128 (≈ 328 µM) | 128 (≈ 328 µM) | 256 (≈ 656 µM) | 256 (≈ 656 µM)
CCCCCCn1c2ccc(C(=O)CCl)cc2c2cc(C(=O)CCl)ccc21 | 16 (≈ 39.6 µM) | 512 (≈ 1270 µM) | 16 (≈ 39.6 µM) | 256 (≈ 633 µM) | 512 (≈ 1270 µM) | 512 (≈ 1270 µM) | 512 (≈ 1270 µM) | 256 (≈ 633 µM) | 256 (≈ 633 µM) | 512 (≈ 1270 µM) | 512 (≈ 1270 µM) | 512 (≈ 1270 µM) | 256 (≈ 633 µM)
CCn1c2ccc(C(=O)CCl)cc2c2cc(C(=O)CCl)ccc21 | 512 (≈ 1470 µM) | 512 (≈ 1470 µM) | 256 (≈ 735 µM) | 512 (≈ 1470 µM) | 512 (≈ 1470 µM) | 256 (≈ 735 µM) | 512 (≈ 1470 µM) | 256 (≈ 735 µM) | 256 (≈ 735 µM) | 256 (≈ 735 µM) | 128 (≈ 368 µM) | 512 (≈ 1470 µM) | 128 (≈ 368 µM)
CCCCCCCCn1c2ccc(-c3csc(N)n3)cc2c2cc(-c3csc(N)n3)ccc21 | 128 (≈ 269 µM) | 512 (≈ 1080 µM) | 512 (≈ 1080 µM) | 512 (≈ 1080 µM) | 32 (≈ 67.3 µM) | 64 (≈ 135 µM) | 512 (≈ 1080 µM) | 512 (≈ 1080 µM) | 512 (≈ 1080 µM) | 256 (≈ 538 µM) | 512 (≈ 1080 µM) | 512 (≈ 1080 µM) | 512 (≈ 1080 µM)
CCCCCCCCCCn1c2ccc(-c3csc(N)n3)cc2c2cc(-c3csc(N)n3)ccc21 | 128 (≈ 254 µM) | 256 (≈ 508 µM) | 512 (≈ 1020 µM) | 512 (≈ 1020 µM) | 128 (≈ 254 µM) | 128 (≈ 254 µM) | 512 (≈ 1020 µM) | 256 (≈ 508 µM) | 256 (≈ 508 µM) | 128 (≈ 254 µM) | 256 (≈ 508 µM) | 128 (≈ 254 µM) | 128 (≈ 254 µM)
CCCCCCCn1c2ccc(C(=O)CCl)cc2c2cc(C(=O)CCl)ccc21 | 512 (≈ 1220 µM) | 512 (≈ 1220 µM) | 512 (≈ 1220 µM) | 512 (≈ 1220 µM) | 512 (≈ 1220 µM) | 512 (≈ 1220 µM) | 512 (≈ 1220 µM) | 512 (≈ 1220 µM) | 512 (≈ 1220 µM) | 512 (≈ 1220 µM) | 512 (≈ 1220 µM) | 512 (≈ 1220 µM) | 256 (≈ 612 µM)
CCCCCCCCCCCCCCCCCCn1c2ccc(C(=O)CCl)cc2c2cc(C(=O)CCl)ccc21 | 512 (≈ 894 µM) | 256 (≈ 447 µM) | 256 (≈ 447 µM) | 256 (≈ 447 µM) | 256 (≈ 447 µM) | 128 (≈ 224 µM) | 512 (≈ 894 µM) | 512 (≈ 894 µM) | 512 (≈ 894 µM) | 256 (≈ 447 µM) | 256 (≈ 447 µM) | 512 (≈ 894 µM) | 512 (≈ 894 µM)
CCCn1c2ccc(C(=O)CCl)cc2c2cc(C(=O)CCl)ccc21 | 128 (≈ 353 µM) | 256 (≈ 707 µM) | 256 (≈ 707 µM) | 256 (≈ 707 µM) | 512 (≈ 1410 µM) | 512 (≈ 1410 µM) | 512 (≈ 1410 µM) | 512 (≈ 1410 µM) | 256 (≈ 707 µM) | 512 (≈ 1410 µM) | 256 (≈ 707 µM) | 256 (≈ 707 µM) | 512 (≈ 1410 µM)
CCCCCCCCn1c2ccc(C(=O)CCl)cc2c2cc(C(=O)CCl)ccc21 | 512 (≈ 1180 µM) | 512 (≈ 1180 µM) | 256 (≈ 592 µM) | 512 (≈ 1180 µM) | 512 (≈ 1180 µM) | 512 (≈ 1180 µM) | 512 (≈ 1180 µM) | 512 (≈ 1180 µM) | 512 (≈ 1180 µM) | 512 (≈ 1180 µM) | 256 (≈ 592 µM) | 512 (≈ 1180 µM) | 512 (≈ 1180 µM)
CCCCCCn1c2ccc(-c3csc(N)n3)cc2c2cc(-c3csc(N)n3)ccc21 | 256 (≈ 572 µM) | 128 (≈ 286 µM) | 32 (≈ 71.5 µM) | 256 (≈ 572 µM) | 64 (≈ 143 µM) | 32 (≈ 71.5 µM) | 512 (≈ 1140 µM) | 256 (≈ 572 µM) | 256 (≈ 572 µM) | 512 (≈ 1140 µM) | 256 (≈ 572 µM) | 256 (≈ 572 µM) | 128 (≈ 286 µM)
